The text below walks through data of patent US20220306617A1, “SUBSTITUTED 1,3-PHENYL HETEROARYL DERIVATIVES AND THEIR USE IN THE TREATMENT OF DISEASE” (NOVARTIS AG, priority 2019, published 2022).

The experiment deals with T1, abc isoform of human TMEM16A channel expressed in CHO cells (Homo sapiens, UniProt Q5XXA6, DEL476-501).
T1 construct: expressed in transfected cells; host or cells: CHO cells, doxycycline-inducible expression under Blasticidin/Zeocin selection
T1 sequence (Q5XXA6 with tags, fused parts or gaps isoform Q5XXA6-5 DEL539-564): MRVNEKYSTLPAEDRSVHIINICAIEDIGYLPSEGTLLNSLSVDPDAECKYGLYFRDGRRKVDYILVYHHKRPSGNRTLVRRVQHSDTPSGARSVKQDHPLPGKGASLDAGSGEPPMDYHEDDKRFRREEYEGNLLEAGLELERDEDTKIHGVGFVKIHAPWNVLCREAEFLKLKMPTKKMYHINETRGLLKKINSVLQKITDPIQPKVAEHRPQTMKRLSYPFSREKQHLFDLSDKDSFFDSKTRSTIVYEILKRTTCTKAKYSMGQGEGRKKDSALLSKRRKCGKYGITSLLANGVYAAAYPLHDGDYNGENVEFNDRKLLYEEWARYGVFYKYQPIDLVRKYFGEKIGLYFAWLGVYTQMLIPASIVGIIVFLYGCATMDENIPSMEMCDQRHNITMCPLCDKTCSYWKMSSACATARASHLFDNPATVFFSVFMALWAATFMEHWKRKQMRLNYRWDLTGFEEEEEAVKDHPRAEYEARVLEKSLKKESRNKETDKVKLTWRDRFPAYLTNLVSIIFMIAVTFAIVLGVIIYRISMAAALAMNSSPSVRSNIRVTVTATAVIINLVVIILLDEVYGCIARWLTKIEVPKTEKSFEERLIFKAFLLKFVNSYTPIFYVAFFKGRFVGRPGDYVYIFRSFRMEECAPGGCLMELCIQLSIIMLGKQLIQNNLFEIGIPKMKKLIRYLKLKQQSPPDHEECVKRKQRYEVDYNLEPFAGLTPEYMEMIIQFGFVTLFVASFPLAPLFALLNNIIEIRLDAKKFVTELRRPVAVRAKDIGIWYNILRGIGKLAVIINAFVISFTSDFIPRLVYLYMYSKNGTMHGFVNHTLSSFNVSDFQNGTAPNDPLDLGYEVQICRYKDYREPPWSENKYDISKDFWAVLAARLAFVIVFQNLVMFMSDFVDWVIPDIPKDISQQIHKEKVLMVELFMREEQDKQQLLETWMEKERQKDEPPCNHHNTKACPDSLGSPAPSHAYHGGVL
Description: Automated patch clamping (QPatch) assay to measure TMEM16A activity in whole-cell. Particulars: for pEC50: CHO cells expressing human TMEM16A (abc), whole-cell automated patch clamp, Hill fit, read-out: TMEM16A QPATCH assay EC50 V3 EC50; for Emax: CHO, maximum current at highest dose relative to reference potentiator at maximal concentration (upper limit) and vehicle (lower limit), read-out: TMEM16A QPATCH assay EC50 V3 Assay Window (% TMEM16A max activation). The format is cell-based. The essentials:
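CHO cells with doxycycline-induced (1 μg/mL, 18-24 h) human TMEM16A abc isoform; QPatch whole-cell recording, hold −70 mV, step +70 mV 1500 ms, then −90 to +70 mV ramp. Compounds in 0.3% DMSO; EC50 by Hill fit; % max activation relative to vehicle baseline and reference potentiator maximum.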
A general note: The patch-clamp technique gives a direct electrical read-out from membranes.

The pEC50 is −log10 of the EC50, conventionally taken in molar units.

pEC50: −log10 of the molar value.

In the case of `CCC(CC)NC(=O)c1cnc(-c2cccc(-c3cc(C(=O)Nc4cccc(OC(C)C)c4)n[nH]3)c2)o1` [Example 3.21, 2-(3-(3-((3-Isopropoxyphenyl)Carbamoyl)-1H-Pyrazol-5-Yl)Phenyl)-N-(Pentan-3-Yl)Oxazole-5-Carboxamide], the pEC50 was 6.72 and the Emax turned out to be 74%.
On the same counts, the results for `CCC(CC)NC(=O)c1cnc(-c2cccc(-c3cc(C(=O)NCc4ccc5c(c4)OCO5)n[nH]3)c2)o1` [Example 3.22, 2-(3-(3-((Benzo[d][1,3]Dioxol-5-Ylmethyl)Carbamoyl)-1H-Pyrazol-5-Yl)Phenyl)-N-(Pentan-3-Yl)Oxazole-5-Carboxamide] are 6.85 and 60%.
Take `CCC(CC)NC(=O)c1cnc(-c2cccc(-c3cc(C(=O)NCCSC(C)(C)C)n[nH]3)c2)o1` [Example 3.23, 2-(3-(3-((2-(Tert-Butylthio)Ethyl)Carbamoyl)-1H-Pyrazol-5-Yl)Phenyl)-N-(Pentan-3-Yl)Oxazole-5-Carboxamide]: the pEC50 is 6.89 and the Emax is 79%.
On the same counts, the results for `CCC(CC)NC(=O)c1cnc(-c2cccc(-c3cc(C(=O)N[C@@H](C)CC)n[nH]3)c2)o1` [Example 3.24, (S)-2-(3-(3-(Sec-Butylcarbamoyl)-1H-Pyrazol-5-Yl)Phenyl)-N-(Pentan-3-Yl)Oxazole-5-Carboxamide] are 7.40 and 76%.
As for `CCC(CC)NC(=O)c1cnc(-c2cccc(-c3cc(C(=O)N[C@@H](C)C4CC4)n[nH]3)c2)o1` [Example 3.25, (S)-2-(3-(3-((1-Cyclopropylethyl)Carbamoyl)-1H-Pyrazol-5-Yl)Phenyl)-N-(Pentan-3-Yl)Oxazole-5-Carboxamide], the pEC50 was 7.40 and the Emax was found to be 90%.
For `CCC(CC)NC(=O)c1cnc(-c2cccc(-c3cc(C(=O)N[C@@H](CC(C)C)C(=O)OC)n[nH]3)c2)o1` [Example 3.27, (S)-Methyl 4-Methyl-2-(5-(3-(5-(Pentan-3-Ylcarbamoyl)Oxazol-2-Yl)Phenyl)-1H-Pyrazole-3-Carboxamido)Pentanoate], in that order: 8.00 and 87%.
For `CCC(CC)NC(=O)c1cnc(-c2cccc(-c3cc(C(=O)NC(Cc4ccccc4)C(=O)OC)n[nH]3)c2)o1` (stereo not shown) [Example 3.28, Methyl 2-(5-(3-(5-(Pentan-3-Ylcarbamoyl)Oxazol-2-Yl)Phenyl)-1H-Pyrazole-3-Carboxamido)-3-Phenylpropanoate], in that order: 6.46 and 84%.
For the compound `CCC(CC)NC(=O)c1cnc(-c2cccc(-c3cc(C(=O)NC(CC)C(C)C)n[nH]3)c2)o1` (stereo not shown) [Example 3.29, 2-(3-(3-((2-Methylpentan-3-Yl)Carbamoyl)-1H-Pyrazol-5-Yl)Phenyl)-N-(Pentan-3-Yl)Oxazole-5-Carboxamide], the negative-log EC50 (pEC50) was 7.40 and the Emax amounted to 94%.
With `CCC(CC)NC(=O)c1cnc(-c2cccc(-c3cc(C(=O)N4CCC(C(=O)OC)C4)n[nH]3)c2)o1` (stereo not shown) [Example 3.30, Methyl 1-(5-(3-(5-(Pentan-3-Ylcarbamoyl)Oxazol-2-Yl)Phenyl)-1H-Pyrazole-3-Carbonyl)Pyrrolidine-3-Carboxylate], the pEC50 is 6.12 and the Emax came to 90%.
On the same counts, the results for `CCC(CC)NC(=O)c1cnc(-c2cccc(-c3cc(C(=O)N4CCCC4C(C)C)n[nH]3)c2)o1` (stereo not shown) [Example 3.31, 2-(3-(3-(2-Isopropylpyrrolidine-1-Carbonyl)-1H-Pyrazol-5-Yl)Phenyl)-N-(Pentan-3-Yl)Oxazole-5-Carboxamide] are 6.74 and 87%.
Take `CCC(CC)NC(=O)c1cnc(-c2cccc(-c3cc(C(=O)NCC4CC4)n[nH]3)c2)o1` [Example 3.32, 2-(3-(3-((Cyclopropylmethyl)Carbamoyl)-1 H-Pyrazol-5-Yl)Phenyl)-N-(Pentan-3-Yl)Oxazole-5-Carboxamide]: the pEC50 was 6.96 and the Emax is 55%.
